Reference: US20260226044A1, “PREPARATION OF AN S1P RECEPTOR MODULATOR” (Oppilan Pharma Limited, priority 2023, published 2026)

Biological target: T1, human S1P1 (Homo sapiens, UniProt P21453)
T1 construct: CHO-K1 Gαqi5 cells expression full-length human S1P1; expressed in transfected cells; host or cells: CHO-K1 Gαqi5 cells (membranes)
Assay: GTPγS binding assay (scintillation proximity assay, S1P1 membranes)
Type: biochemical
Conditions: membranes from CHO-K1 Gαqi5 cells expressing full-length human S1P1; GTPγ35S; 60 minutes incubation
Experimental: Example 4: GTPyS Binding Assay
S1P1 membrane is prepared from CHO-K1 Gαqi5 cells expression full-length human S1P1. Scintillation proximity assay (SPA) is performed by incubating membranes, GTPγ^35S, and compounds at various concentrations for 60 minutes. Wheat germ agglutinin-coated SPA beads are added and incubated for 60 minutes before centrifugation and scintillation counting.

T1 sequence (P21453 whole entry): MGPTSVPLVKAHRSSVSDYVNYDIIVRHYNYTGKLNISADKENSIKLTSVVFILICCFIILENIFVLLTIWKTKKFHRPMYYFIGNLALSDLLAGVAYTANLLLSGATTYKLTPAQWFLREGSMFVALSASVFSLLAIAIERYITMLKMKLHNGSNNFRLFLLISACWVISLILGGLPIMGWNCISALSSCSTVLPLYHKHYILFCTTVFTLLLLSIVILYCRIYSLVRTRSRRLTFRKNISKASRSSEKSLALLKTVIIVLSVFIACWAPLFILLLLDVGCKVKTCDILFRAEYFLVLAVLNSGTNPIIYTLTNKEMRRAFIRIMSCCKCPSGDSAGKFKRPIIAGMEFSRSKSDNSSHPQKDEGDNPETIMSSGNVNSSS

Compound: O=C1CC[C@@H](Oc2cc(Cl)c(-c3noc(-c4cn5cc(C(F)(F)F)cc(Cl)c5n4)n3)cc2Cl)CN1 [Compound 1, (R)-5-(2,5-dichloro-4-(5-(8-chloro-6-(trifluoromethyl)imidazo[1,2-a]pyridin-2-yl)-1,2,4-oxadiazol-3-yl)phenoxy)piperidin-2-one]
- EC50: < 1000 nM
